Assay results reported in publication PMC6920357, “CETSA-based target engagement of taxanes as biomarkers for efficacy and resistance” (Scientific Reports, 2019).
Where two headings read alike, the source gives them in different places. Blank lines part the entries; values can stand above or below the compound they belong to.

System: T1, β-tubulin
T1 construct: gene TUBB; endogenous untagged beta-tubulin (isotypes not resolved) in microtubules with alpha-tubulin, intact human cancer cells
Test: isothermal dose response CETSA, AlphaLISA
Format: cell-based

EC50 (intact K562-P cells, 1 h 45 min at 37 °C, heated 63 °C 3 min, no tariquidar, taxane site, read-out: EC50): 300 ± 80 nM
SMILES: CC(=O)O[C@@]12CO[C@@H]1C[C@H](O)[C@@]1(C)C(=O)[C@H](O)C3=C(C)[C@@H](OC(=O)[C@H](O)[C@@H](NC(=O)OC(C)(C)C)c4ccccc4)C[C@@](O)([C@@H](OC(=O)c4ccccc4)[C@H]21)C3(C)C [docetaxel]

EC50: 1550 ± 300 nM
SMILES: CC(=O)O[C@H]1C(=O)[C@@]2(C)[C@H]([C@H](OC(=O)c3ccccc3)[C@]3(O)C[C@H](OC(=O)[C@H](O)[C@@H](NC(=O)c4ccccc4)c4ccccc4)C(C)=C1C3(C)C)[C@]1(OC(C)=O)CO[C@@H]1C[C@@H]2O [paclitaxel]

EC50 (intact PC346C prostate cancer cells, heated 63 °C, vinca site, read-out: EC50): 2020 ± 310 nM
SMILES: CCC1=C[C@@H]2CN(C1)Cc1c([nH]c3ccccc13)[C@@](C(=O)OC)(c1cc3c(cc1OC)N(C)[C@H]1[C@@](O)(C(=O)OC)[C@H](OC(C)=O)[C@]4(CC)C=CCN5CC[C@]31[C@@H]54)C2 [vinorelbine]
